Results taken from publication PMC9733664 (Blood cells, molecules & diseases, 2021).

Tests used:
[1] = test system: HbF and HbS protein in SCD erythroid progenitors; test: Western blot for HbF and HbS protein in sickle erythroid progenitors; assay type: cell-based, human
K562 cells = test: Cell growth/proliferation of K562 cells; assay type: cell-based, human; conditions: over the concentration range tested
HDAC6 = molecular target: T1, HDAC6 (Homo sapiens, UniProt Q9UBN7); test: In vitro HDAC inhibition assay; assay type: biochemical; conditions: 10-dose IC50 mode
T1 sequence (Q9UBN7 1-1215): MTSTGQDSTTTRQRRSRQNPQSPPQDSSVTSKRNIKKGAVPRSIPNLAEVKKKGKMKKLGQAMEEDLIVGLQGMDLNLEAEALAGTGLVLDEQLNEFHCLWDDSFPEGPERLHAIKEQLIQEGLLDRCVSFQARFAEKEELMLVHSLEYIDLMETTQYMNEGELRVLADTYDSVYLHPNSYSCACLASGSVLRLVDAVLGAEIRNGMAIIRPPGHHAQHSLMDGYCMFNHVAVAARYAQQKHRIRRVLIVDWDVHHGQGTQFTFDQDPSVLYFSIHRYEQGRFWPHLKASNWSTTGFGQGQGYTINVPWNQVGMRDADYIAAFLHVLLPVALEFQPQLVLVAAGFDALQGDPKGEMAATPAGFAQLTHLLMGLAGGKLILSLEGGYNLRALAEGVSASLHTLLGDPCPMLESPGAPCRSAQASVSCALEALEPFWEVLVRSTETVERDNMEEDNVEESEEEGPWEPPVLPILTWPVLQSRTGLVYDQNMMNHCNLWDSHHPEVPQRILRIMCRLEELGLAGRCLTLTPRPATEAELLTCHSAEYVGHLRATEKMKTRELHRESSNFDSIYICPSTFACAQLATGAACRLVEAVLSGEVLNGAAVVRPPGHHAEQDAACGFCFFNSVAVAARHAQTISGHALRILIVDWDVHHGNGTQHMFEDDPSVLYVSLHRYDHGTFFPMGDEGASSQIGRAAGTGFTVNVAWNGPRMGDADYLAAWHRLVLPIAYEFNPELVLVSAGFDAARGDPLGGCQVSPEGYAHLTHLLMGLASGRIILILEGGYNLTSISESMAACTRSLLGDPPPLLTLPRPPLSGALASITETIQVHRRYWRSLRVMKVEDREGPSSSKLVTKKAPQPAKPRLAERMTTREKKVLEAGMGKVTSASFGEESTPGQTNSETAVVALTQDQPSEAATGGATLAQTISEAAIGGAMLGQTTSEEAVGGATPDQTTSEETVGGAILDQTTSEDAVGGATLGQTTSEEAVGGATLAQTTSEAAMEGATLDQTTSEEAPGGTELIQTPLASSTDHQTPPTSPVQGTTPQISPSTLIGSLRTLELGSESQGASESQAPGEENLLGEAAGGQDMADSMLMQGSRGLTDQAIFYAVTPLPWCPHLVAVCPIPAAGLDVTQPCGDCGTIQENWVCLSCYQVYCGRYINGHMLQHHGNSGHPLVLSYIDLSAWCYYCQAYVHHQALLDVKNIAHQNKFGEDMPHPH

[2] = test system: SCD erythroid progenitors; test: Erythroid maturation and growth of sickle erythroid progenitors; assay type: cell-based, human; conditions: 5 days of treatment (day 12)
[3] = test system: HbF in SCD erythroid progenitors; test: Flow cytometry for F-cells and HbF MFI in sickle erythroid progenitors; assay type: cell-based, human; conditions: for mean F-cells: vehicle 5.8%
[4] = test system: γ-globin and β-globin mRNA in SCD erythroid progenitors; test: Globin mRNA in sickle erythroid progenitors; assay type: cell-based, human; conditions: for increase in γ-globin mRNA: day 7 to day 12, n = 6 SCD subjects, vs vehicle
[5] = test system: γ-globin mRNA in K562 cells; test: γ-globin mRNA induction in K562 cells; assay type: cell-based, human; conditions: 48 h, CT108 3 μM, CT-101 5 μM, ST-20 20 μM, valproic acid 1 mM and 2 mM, vs control
Class I HDAC (HDAC 1-3) = test: In vitro HDAC inhibition assay; assay type: biochemical
[6] = test system: acH3 and RNA PolII at γ-globin promoter, β-globin promoter, LCR-HS2; assay type: cell-based, human; conditions: for RNA PolII and acH3 chromatin enrichment in the LCR-HS2: Fig. 5E
[7] = test system: acetylated histone H3 (acH3); test: Western blot for nuclear acetylated histone H3 in sickle erythroid progenitors; assay type: cell-based, human
[8] = test system: Class IIa and Class IV HDAC isoforms; test: In vitro HDAC inhibition assay; assay type: biochemical; conditions: 10-dose IC50 mode
HbF [9] = conditions: SCD patients, intravenous; cited from earlier work
HDACs 1-9, and 11 = test: In vitro HDAC inhibition assay, profile over all isoforms tested; conditions: heat map Fig. 1A
[10] = nine SCD subjects, 10 mg per day, 3 days per week; ref NCT01245179; cited from earlier work
HbF [11] = conditions: three patients with Hodgkin's lymphoma, 3 months of therapy; cited from earlier work

CCCCCCCC(=O)SCC/C=C/[C@@H]1CC(=O)NCc2nc(cs2)C2=N[C@@](C)(CS2)C(=O)N[C@@H](C(C)C)C(=O)N1 [CT-101]
HbF level increase by Western blot ([1]; 200 nM, vs untreated control progenitors, p < 0.01): up to 1.7 fold
HbS protein level ([1]; Western blot, Fig. 3C): not significantly changed
cell proliferation (K562 cells): did not inhibit cell proliferation
inhibition of HDAC6 (HDAC6): Some inhibition
decrease in number of orthochromatic erythroid cells ([2]; 100 nM): 42%
decrease in number of orthochromatic erythroid cells ([2]; 200 nM): 56%
mean F-cells ([3]; 100 nM, p < 0.01): 8.1%
mean F-cells ([3]; 200 nM, p < 0.001): 7.4%
mean increase in the proportion of F-cells ([3]; vs DMSO vehicle controls, same subject): 30%
increase in γ-globin mRNA ([4]; 100 nM): 3.9 fold
increase in γ-globin mRNA ([4]; 200 nM): 7 fold
β-globin transcription ([4]; sickle erythroid progenitors): did not alter
γ-globin mRNA / HbF expression induction [5]: 11 fold
IC50 (Class I HDAC (HDAC 1-3); read-out: IC50 as Class I HDACi, lowest level over Class I isoforms): ≥ 4 nM
IC50 for HDAC 1-3 (Class I HDAC (HDAC 1-3); singlet 10-dose IC50 mode, 3-fold serial dilution, active free thiol form tested): nanomolar concentrations
acH3 chromatin enrichment in the γ-globin promoter ([6]; CT-101 100 mM and 200 nM, 48 h): 3.8 fold
RNA PolII and acH3 chromatin enrichment in the LCR-HS2 [6]: increased
RNA PolII and acH3 chromatin enrichment in the β^s-globin proximal promoter ([6]; vs vehicle treated cells): not changed
increase in acH3 level ([7]; 100 nM, n = 6): 1.8 fold
increase in acH3 level ([7]; 200 nM, n = 6): 2.0 fold
inhibition of Class IIa and Class IV isoforms [8]: little to no inhibition

NC(=O)NO [HU, hydroxyurea, reference compound]
HbF level increase by Western blot ([1]; HU 75 μM, vs untreated control): 1.3 fold

CCCC(=O)O.CCCC(=O)O.CCCC(=O)O.CCCC(=O)O.N=C(N)NCCC[C@H](N)C(=O)O.N=C(N)NCCC[C@H](N)C(=O)O.N=C(N)NCCC[C@H](N)C(=O)O [arginine butyrate]
enhancement of HbF levels (HbF [9]): 3 fold

O=C(/C=C/c1cccc(S(=O)(=O)Nc2ccccc2)c1)NO [belinostat]
HDAC isoform inhibition profile / selectivity (HDACs 1-9, and 11): inhibited most HDAC isoforms to some degree

Cc1[nH]c2ccccc2c1CCNCc1ccc(/C=C/C(=O)NO)cc1 [panobinostat]
HDAC isoform inhibition profile / selectivity (HDACs 1-9, and 11): inhibited most HDAC isoforms to some degree
tolerability [10]: without dose limiting or serious adverse effects
increase in HbF (HbF [11]): 2 fold

CCCC(=O)[O-].[Na+] [sodium butyrate, reference compound]
HbF level increase by Western blot ([1]; sodium butyrate 0.2 μM, vs untreated control): 1.4 fold
decrease of β-globin mRNA level ([4]; sodium butyrate 0.2 μM, day 7 to day 12): 80%
RNA PolII and acH3 chromatin enrichment in the LCR-HS2 [6]: increased
increase in acH3 level ([7]; sodium butyrate): 3 fold
